Laboratory results taken from ChEMBL document CHEMBL1201861, “Genomics of Drug Sensitity in Cancer screening data, Wellcome Trust Sanger Institute”.
“And” between values parts separate entries of the source, which are not always exact repeats. Identical values can stand only once. Where a SMILES comes first, the peptide text is derived from it. The star is where a group is joined. Cbz = O=C(OCc1ccccc1)*

How the values were obtained:
Assay in all cases: cells
EB-3 = type: functional, cell-based, Homo sapiens;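 further: human EB-3 cells, growth inhibition read out via a cell viability assay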
Description: SANGER: Inhibition of human EB-3 cell growth in a cell viability assay.

HuTu80 = type: functional, cell-based, Homo sapiens, HUTU-80;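 further: growth inhibition of HuTu80 human cells, determined with a cell viability readout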
Description: SANGER: Inhibition of human HUTU-80 cell growth in a cell viability assay.

IMR-5 = type: functional, cell-based, Homo sapiens;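 further: growth inhibition of human IMR-5 cells, read out with a cell viability assay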
Description: SANGER: Inhibition of human IMR-5 cell growth in a cell viability assay.

KARPAS-422 = type: functional, cell-based, Homo sapiens
Description: SANGER: Inhibition of human KARPAS-422 cell growth in a cell viability assay.

KMS-12-PE = type: functional, cell-based, Homo sapiens;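 further: growth inhibition of human KMS-12-PE cells, measured with a cell viability assay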
Description: SANGER: Inhibition of human KMS-12-PE cell growth in a cell viability assay.

LB373-MEL-D = type: functional, cell-based, Homo sapiens;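 further: growth inhibition of the cell line, read out in a cell viability assay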
Description: SANGER: Inhibition of human LB373-MEL-D cell growth in a cell viability assay.

LU-165 = type: functional, cell-based, Homo sapiens
Description: SANGER: Inhibition of human LU-165 cell growth in a cell viability assay.

MFH-ino = type: functional, cell-based, Homo sapiens;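 further: growth inhibition of human MFH-ino cells, read out by a cell viability assay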
Description: SANGER: Inhibition of human MFH-ino cell growth in a cell viability assay.

NB12 = type: functional, cell-based; settings: Homo sapiens;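 further: growth inhibition of human NB12 cells, read out by a cell viability assay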
Description: SANGER: Inhibition of human NB12 cell growth in a cell viability assay.

NCI-H716 = type: functional, cell-based, Homo sapiens;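 further: growth inhibition of human NCI-H716 cells, measured by a cell viability assay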
Description: SANGER: Inhibition of human NCI-H716 cell growth in a cell viability assay.

NCI-H889 = type: functional, cell-based, Homo sapiens;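 further: cell growth inhibition of the cell line, read out with a viability assay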
Description: SANGER: Inhibition of human NCI-H889 cell growth in a cell viability assay.

P31-FUJ = type: functional, cell-based, Homo sapiens;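 further: growth inhibition of P31-FUJ cells, read out with a viability assay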
Description: SANGER: Inhibition of human P31-FUJ cell growth in a cell viability assay.

WSU-NHL = type: functional, cell-based, Homo sapiens;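 further: growth inhibition of human WSU-NHL cells, read out with a cell viability assay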
Description: SANGER: Inhibition of human WSU-NHL cell growth in a cell viability assay.

YT = type: functional, cell-based, Homo sapiens
Description: SANGER: Inhibition of human YT cell growth in a cell viability assay.

[1] = Homo sapiens, IMR-5, read-out: IC50

Compound	IC50 (EB-3; Homo sapiens, EB-3) [µM]	IC50 (HuTu80; Homo sapiens, HuTu80) [µM]	IC50 (IMR-5; [1]) [µM]	IC50 (KARPAS-422; Homo sapiens, KARPAS-422) [µM]	IC50 (KMS-12-PE; Homo sapiens, KMS-12-PE) [µM]	IC50 (LB373-MEL-D; Homo sapiens, LB373-MEL-D) [µM]	IC50 (LU-165; Homo sapiens, LU-165) [µM]	IC50 (MFH-ino; Homo sapiens, MFH-ino) [µM]	IC50 (NB12) [µM]	IC50 (NCI-H716; Homo sapiens, NCI-H716) [µM]	IC50 (NCI-H889; Homo sapiens, NCI-H889) [µM]	IC50 (P31-FUJ; Homo sapiens, P31-FUJ) [µM]	IC50 (WSU-NHL; Homo sapiens, WSU-NHL) [µM]	IC50 (YT; Homo sapiens, YT) [µM]	also measured
CC(C)C[C@H](NC(=O)[C@H](Cc1ccccc1)NC(=O)c1cnccn1)B(O)O [BORTEZOMIB]	0.00266	0.000533	> 0.02	> 0.02	> 0.02	0.0007	> 0.02	0.000443	0.00156	> 0.02	> 0.02	> 0.02	> 0.02	> 0.02	–
C[C@@H](Oc1cc(-c2cnn(C3CCNCC3)c2)cnc1N)c1c(Cl)ccc(F)c1Cl [CRIZOTINIB]	> 2	> 2	> 2	> 2	> 2	> 2	> 2	> 2	–	> 2	> 2	> 2	> 2	> 2	–
Nc1ccccc1NC(=O)c1ccc(CNC(=O)OCc2cccnc2)cc1 [ENTINOSTAT]	4	1.8	> 5	1.45	> 5	2.27	0.618	3.47	0.318	> 5	> 5	> 5	> 5	> 5	–
Cc1ccc(NC(=O)c2ccc(CN3CCN(C)CC3)cc2)cc1Nc1nccc(-c2cccnc2)n1 [IMATINIB]	> 2	> 2	–	> 2	> 2	> 2	> 2	> 2	–	> 2	> 2	> 2	> 2	> 2	IC50 (IMR-5; Homo sapiens, IMR-5): > 2 µM
CC(C)C[C@@H](C=O)NC(=O)[C@H](CC(C)C)NC(=O)[C@H](CC(C)C)NC(=O)OCc1ccccc1 [MG-132] (Cbz-Leu-Leu-Leu-aldehyde)	–	> 1	> 1	–	–	–	–	–	> 1	–	–	–	–	–	IC50 (EB-3; eb-3): > 1 µM; IC50 (HuTu80; hutu-80): > 1 µM; IC50 (IMR-5; imr-5, read-out: IC50): > 1 µM; IC50 (KARPAS-422; karpas-422): > 1 µM; IC50 (KMS-12-PE; kms-12-pe): > 1 µM; IC50 (LB373-MEL-D; lb373-mel-d): 0.242 µM and > 1 µM; IC50 (LU-165; lu-165): > 1 µM; IC50 (MFH-ino; mfh-ino): > 1 µM and 0.111 µM; IC50 (NCI-H716; nci-h716): > 1 µM; IC50 (NCI-H889; nci-h889): > 1 µM; IC50 (P31-FUJ; p31-fuj): > 1 µM; IC50 (WSU-NHL; wsu-nhl): > 1 µM; IC50 (YT; yt): > 1 µM
COc1cc(N2CCC(N3CCN(C)CC3)CC2)ccc1Nc1ncc(Cl)c(Nc2ccccc2S(=O)(=O)C(C)C)n1 [TAE-684]	> 2	0.474	> 2	1.1	> 2	> 2	> 2	0.325	–	1.07	> 2	> 2	> 2	> 2	–
